# Test results taken from patent publication US7989640B2, “Sulfonylpyrrolidine modulators of androgen receptor function and method” (Bristol-Myers Squibb Company, priority 2004, dated 2011).
# Assays:
# [1] = target: T1, AR (Rattus norvegicus, UniProt P15207)
# T1 sequence (P15207 1-902): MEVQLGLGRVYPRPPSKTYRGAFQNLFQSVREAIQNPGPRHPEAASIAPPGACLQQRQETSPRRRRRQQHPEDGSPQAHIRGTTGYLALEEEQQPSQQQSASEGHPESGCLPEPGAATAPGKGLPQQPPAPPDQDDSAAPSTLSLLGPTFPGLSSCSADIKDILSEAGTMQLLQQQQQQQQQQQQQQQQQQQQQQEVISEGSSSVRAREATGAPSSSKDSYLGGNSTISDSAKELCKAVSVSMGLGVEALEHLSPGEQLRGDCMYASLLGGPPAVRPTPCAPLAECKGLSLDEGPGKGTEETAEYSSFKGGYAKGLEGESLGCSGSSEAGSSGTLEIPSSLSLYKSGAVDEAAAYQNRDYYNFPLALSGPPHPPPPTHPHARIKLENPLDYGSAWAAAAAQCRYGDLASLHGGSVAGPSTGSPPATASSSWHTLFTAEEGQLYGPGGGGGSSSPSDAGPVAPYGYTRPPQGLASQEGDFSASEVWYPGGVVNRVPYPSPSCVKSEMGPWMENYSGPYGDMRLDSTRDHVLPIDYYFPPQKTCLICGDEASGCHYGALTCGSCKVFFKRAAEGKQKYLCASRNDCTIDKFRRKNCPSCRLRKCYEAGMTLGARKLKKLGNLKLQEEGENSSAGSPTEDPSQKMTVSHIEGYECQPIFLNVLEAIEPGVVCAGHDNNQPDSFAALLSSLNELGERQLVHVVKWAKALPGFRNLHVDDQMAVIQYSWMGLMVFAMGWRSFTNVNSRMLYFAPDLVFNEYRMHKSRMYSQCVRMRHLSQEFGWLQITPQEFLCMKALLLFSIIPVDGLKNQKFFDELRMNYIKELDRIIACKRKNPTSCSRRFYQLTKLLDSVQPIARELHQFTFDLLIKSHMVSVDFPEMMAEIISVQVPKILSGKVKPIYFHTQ
# Source text: The activity of compounds of the present invention as AR agonists was investigated in an immature male rat model, a recognized test of anabolic effects in muscle and sustaining effects in sex organs for a given compound, as described in L. G. Hershberger et al., Proc. Soc. […] Biol. Med., 83, 175 (1953); B. L. Beyler et al, “Methods for evaluating anabolic and catabolic agents in laboratory animals”, J. Amer. Med. Women's Ass., 23, 708 (1968); H. Fukuda et al., “Investigations of the levator ani muscle as an anabolic steroid assay”, Nago Dai. Yak. Ken. Nem. 14, 84 (1966) the disclosures of which are herein incorporated by reference.
# The basis of this assay lies in the well-defined action of androgenic agents on the maintenance and growth of muscle tissues and sexual accessory organs in animals and man. […] J. Anat. […] Ital. Biol. Sper. […] II. […] Ital. Biol. Sper. 42, 1600 (1966); A. Boris et al., Steroids 15, 61 (1970). As described above, the effects of androgens on maintenance of male sexual accessory organs, such as the prostate and seminal vesicles, is well described. Castration results in rapid involution and atrophy of the prostate and seminal vesicles. This effect can be reversed by exogenous addition of androgens. […]
# [2] = target: wild type AR (MDA 453); settings: read-out: Kd for [3H]-DHT; MDA 453 cells, Scatchard analysis
# Protocol: For the whole-cell binding assay, human LNCaP cells (T877A mutant AR) or MDA 453 (wild type AR) in 96-well microtiter plates containing RPMI 1640 or DMEM supplemented with 10% charcoal stripped CA-FBS (Cocaleco Biologicals) respectively, were incubated at 37° C. to remove any endogenous ligand that might be complexed with the receptor in the cells.
# For the saturation analysis, the difference between the total binding and the non-specific binding, was defined as specific binding. […] See e.g. D. Rodbard, Mathematics and statistics of ligand assays: an illustrated guide: In: J. Langon and J. J. Clapp, eds., Ligand Assay, Masson Publishing U.S.A., Inc., New York, pp. 45-99, (1981), the disclosure of which is herein incorporated by reference.
# [formula] After correcting for non-specific binding, IC50 values were determined. […] C2C12 Mouse Myoblast Transactivation Assay
# [3] = target: endogenous glucocorticoid receptor (A549 cells) (Homo sapiens, UniProt P04150); settings: concentration ≦10 μM; 10 ng/mL PMA stimulation; typical value of positive control
# Sequence of endogenous glucocorticoid receptor (A549 cells) (P04150 whole entry): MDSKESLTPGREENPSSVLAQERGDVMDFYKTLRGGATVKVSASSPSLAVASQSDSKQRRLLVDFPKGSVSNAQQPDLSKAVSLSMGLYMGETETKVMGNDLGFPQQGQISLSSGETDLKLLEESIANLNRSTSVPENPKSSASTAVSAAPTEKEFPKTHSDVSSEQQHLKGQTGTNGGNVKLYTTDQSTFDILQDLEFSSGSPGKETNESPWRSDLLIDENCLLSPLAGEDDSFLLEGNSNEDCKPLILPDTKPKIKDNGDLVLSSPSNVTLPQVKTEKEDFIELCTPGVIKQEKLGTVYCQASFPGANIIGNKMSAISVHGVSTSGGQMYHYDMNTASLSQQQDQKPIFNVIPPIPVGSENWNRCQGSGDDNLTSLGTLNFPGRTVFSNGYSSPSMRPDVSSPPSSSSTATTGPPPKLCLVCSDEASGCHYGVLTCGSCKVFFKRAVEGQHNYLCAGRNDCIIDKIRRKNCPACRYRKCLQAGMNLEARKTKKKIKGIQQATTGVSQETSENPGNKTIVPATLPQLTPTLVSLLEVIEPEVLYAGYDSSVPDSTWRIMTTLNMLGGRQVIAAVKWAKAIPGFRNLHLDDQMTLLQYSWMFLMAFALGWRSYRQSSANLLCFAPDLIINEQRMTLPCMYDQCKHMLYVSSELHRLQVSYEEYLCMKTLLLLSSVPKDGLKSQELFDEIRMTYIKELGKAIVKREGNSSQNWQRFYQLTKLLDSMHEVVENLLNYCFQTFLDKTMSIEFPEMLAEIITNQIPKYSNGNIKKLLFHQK
# Protocol: The AP-1 assay is a cell-based luciferase reporter assay. A549 cells, which contain endogenous glucocorticoid receptor, were stably transfected with an AP-1 DNA binding site attached to the luciferase gene. Cells are then grown in RPMI+10% fetal calf serum (charcoal-treated)+Penicillin/Streptomycin with 0.5 mg/mL geneticin. Cells are plated the day before the assay at approximately 40000 cells/well. On assay day, the media is removed by aspiration and 20 μL assay buffer (RPMI without phenol red+10% FCS (charcoal-treated)+Pen/Strep) is added to each well. At this point either 20 μL assay buffer (control experiments), the compounds of the present invention (“test compounds”) (dissolved in DMSO and added at varying concentrations) or dexamethasome (100 nM in DMSO, positive control) are added to each well. The plates are then pre-incubated for 15 min at 37° C., followed by stimulation of the cells with 10 ng/mL PMA. The plates are then incubated for 7 h at 37° C. after which 40 μL luciferase substrate reagent is added to each well.
compound,measurement,setting,value
"CCC(=O)O[C@H]1CC[C@H]2[C@@H]3CCC4=CC(=O)CC[C@]4(C)[C@H]3CC[C@]12C [TP, testosterone propionate]",potency relative to free T,[1]; TP versus free T,10-30 fold
same,EC50 (increase in organ weight),"[1]; immature castrated rats, dosing for 3 days",~0.03 mg
tritiated dihydrotestosterone [[^3H]-DHT],Kd,[2],0.7 nM
C[C@@H]1C[C@H]2[C@@H]3CCC4=CC(=O)C=C[C@]4(C)[C@@]3(F)[C@@H](O)C[C@]2(C)[C@@]1(O)C(=O)CO [dexamethasone],suppression of activity (% inhibition of the reporter system vs buffer control),[3],65%
